Earlier results, collected in patent publication US8053002B2, “Medicinal herbal composition for treating infection” (priority 2005, dated 2011).

Key:
[1] = test system: herpes simplex virus (HSV-2)
[2] = biological target: HIV-1 reverse transcriptase (Human immunodeficiency virus type 1 group M subtype B, UniProt P03366)
[3] = test system: HIV-1
[4] = test system: influenza virus

Row | Compound | anti-herpes simplex virus (HSV-2) activity in vitro [1] | effect on HIV-1 reverse transcriptase activity [2] | further results
1 | O=C(O[C@@H]1O[C@@H]2COC(=O)c3cc(O)c(O)c(O)c3-c3c(cc(O)c(O)c3O)C(=O)O[C@H]2[C@H](OC(=O)c2cc(O)c(O)c(O)c2)[C@H]1OC(=O)c1cc(O)c(O)c(O)c1)c1cc(O)c(O)c(O)c1 [Eugeniin] | exhibited anti-herpes simplex virus (HSV-2) activity |  | 
2 | COC(=O)c1cc(O)c(O)c(O)c1 [methyl gallate] | exhibited anti-herpes simplex virus (HSV-2) activity |  | 
3 | COCc1cc2cc(OC)c(OC)cc2c(-c2ccc3c(c2)OCO3)c1C=O [phyllamycin B] |  | inhibitory effect | 
4 | COc1cc2cc3c(c(-c4ccc5c(c4)OCO5)c2cc1OC)COC3=O [retrojusticiden B] |  | inhibitory effect | 
5 | Prunellin |  |  | minimum inhibition concentration against HIV-1 in vitro [3]: 2.2 µg/mL
6 | O=c1cc(-c2ccc(O)cc2)oc2cc(O)cc(O)c12 [5,7,4-truhydroxyflavone] |  |  | anti-influenza virus activity [4]: anti-influenza virus activity
